Patent EP0597303A2, “Cephalosporin derivatives” (priority 1992, dated 1994)
Where a name gives a salt, the structure may show the parent alone. Read-outs that look alike come from different tables or passages of the source.

Legend:
Assay in all cases: MIC, Agar (Mueller Hinton) Dilution Method
Assay type in all cases: cell-based
Staph. aureus ATCC 29213 = settings: Staphylococcus aureus, ATCC29213; Staph. aureus ATCC 29213; Gram Positive and Others; read-out: MIC
Description: (§1) The in vitro activity of the compounds of formula I of the present invention as measured by the Minimum Inhibitory Concentration (MIC) in micrograms/ml utilizing the Agar (Mueller Hinton) Dilution Method against a variety of Gram-positive and Gram-negative organisms, is set forth in Table 1.

E. coli 4 = settings: Escherichia coli
Description: as §1

Bacillus megaterium 164 = settings: Priestia megaterium; Bacillus megaterium 164; Gram Positive and Others; read-out: MIC
Description: as §1

Enter. cloacae 5699 = settings: Enterobacter cloacae, Gram Negative
Description: as §1

Ent. hirae ATCC 8043 = settings: Enterococcus hirae, ATCC8043, Gram Positive and Others
Description: as §1

E. coli DC-2 = settings: Escherichia coli, DC2, Gram Negative
Description: as §1

Klebsiella pneumoniae A = settings: Gram Negative
Description: as §1

E. coli ATCC 25922 = settings: Escherichia coli, ATCC25922
Description: as §1

[1] = test system: Str. pneumoniae N82-012-MC; settings: Streptococcus pneumoniae, N82012MC; Str. pneumoniae N82-012-MC; Gram Positive and Others; read-out: MIC
Description: as §1

Ps. aeruginosa K799/WT = settings: Pseudomonas aeruginosa, Gram Negative
Description: as §1

Prot. mirabilis 2 = settings: Proteus mirabilis; Prot. mirabilis 2; Gram Negative; read-out: MIC
Description: as §1

Staph. aureus 82 = settings: Staphylococcus aureus
Description: as §1

Ps. aeruginosa B = settings: Pseudomonas aeruginosa, Gram Negative
Description: as §1

Staph. aureus 95 = settings: Staphylococcus aureus; Staph. aureus 95; Gram Positive and Others; read-out: MIC
Description: as §1

Ps. aeruginosa 56 = settings: Pseudomonas aeruginosa, Gram Negative
Description: as §1

Ps. aeruginosa 18SH = settings: Pseudomonas aeruginosa, constitutive ß-lactamase producer, Gram Negative
Description: as §1

[2] = test system: Citrobacter freundii BS-16; settings: BS16; Citrobacter freundii BS-16; constitutive ß-lactamase producer; Gram Negative; read-out: MIC
Description: as §1

[3] = test system: Staphylococcus aureus Smith; settings: Staphylococcus aureus Smith; Gram Positive and Others; read-out: MIC
Description: as §1

Micrococcus luteus PCI = test system: Micrococcus luteus PCI
Description: as §1

Prot. mirabilis 90 = settings: Proteus mirabilis; Prot. mirabilis 90; Gram Negative; read-out: MIC
Description: as §1

E. coli Leo HA2 = settings: Escherichia coli, LEOHA2, Gram Negative
Description: as §1

Staph. aureus 404 = settings: Staphylococcus aureus; Staph. aureus 404; Gram Positive and Others; read-out: MIC
Description: as §1

Ps. aeruginosa K799/61 = settings: Pseudomonas aeruginosa
Description: as §1

E. coli 1573E = settings: Escherichia coli
Description: as §1

Staph. aureus 3647B = settings: Staphylococcus aureus; Staph. aureus 3647B; Gram Positive and Others; read-out: MIC
Description: as §1

Prov. rettgeri ATCC 9250 = settings: Providencia rettgeri, ATCC9250, Gram Negative
Description: as §1

[4] = test system: Proteus vulgaris ATCC 6380; settings: ATCC6380; Proteus vulgaris ATCC 6380; constitutive ß-lactamase producer; Gram Negative; read-out: MIC
Description: as §1

A. calcoaceticus PCI-3 = settings: Acinetobacter calcoaceticus, PCI3, Gram Negative
Description: as §1

E. coli 94 = settings: Escherichia coli, Gram Negative
Description: as §1

Staph. aureus 1059B = settings: Staphylococcus aureus; Staph. aureus 1059B; Gram Positive and Others; read-out: MIC
Description: as §1

Ps. aeruginosa 1937E = settings: Pseudomonas aeruginosa, Gram Negative
Description: as §1

Staph. aureus ATCC 25923 = settings: Staphylococcus aureus, ATCC25923, Gram Positive and Others
Description: as §1

K. oxytoca 1082EN = settings: Klebsiella oxytoca
Description: as §1

Ent. faecalis ATCC 29212 = settings: Enterococcus faecalis, ATCC29212, Gram Positive and Others
Description: as §1

E. coli 2008 E = settings: Escherichia coli; E. coli 2008 E; Gram Negative; read-out: MIC
Description: as §1

Serratia marcescens SM = settings: Serratia marcescens SM; constitutive ß-lactamase producer; Gram Negative; read-out: MIC
Description: as §1

Ps. aeruginosa 8780 = settings: Pseudomonas aeruginosa, Gram Negative
Description: as §1

[5] = test system: Streptococcus pneumoniae 6303; settings: Streptococcus pneumoniae, 6303
Description: as §1

Structure (SMILES) | MIC (Staph. aureus ATCC 29213) [µg/mL] | MIC (Bacillus megaterium 164) [µg/mL] | MIC (Enter. cloacae 5699) [µg/mL] | MIC (Ent. hirae ATCC 8043) [µg/mL] | MIC (E. coli DC-2) [µg/mL] | MIC (Klebsiella pneumoniae A) [µg/mL] | MIC [1] [µg/mL] | MIC (Ps. aeruginosa K799/WT) [µg/mL] | MIC (Prot. mirabilis 2) [µg/mL] | MIC (Ps. aeruginosa B) [µg/mL] | MIC (Staph. aureus 95) [µg/mL] | MIC (Ps. aeruginosa 56) [µg/mL] | MIC (Ps. aeruginosa 18SH) [µg/mL] | MIC [2] [µg/mL] | MIC [3] [µg/mL] | MIC (Prot. mirabilis 90) [µg/mL] | MIC (E. coli Leo HA2) [µg/mL] | MIC (Staph. aureus 404) [µg/mL] | MIC (Staph. aureus 3647B) [µg/mL] | MIC (Prov. rettgeri ATCC 9250) [µg/mL] | also measured
O=C(Cc1cccs1)N[C@@H]1C(=O)N2C(C(=O)O)=C(COC(=O)N3CCN(c4c(F)cc5c(=O)c(C(=O)O)cn(C6CC6)c5c4F)CC3)CS[C@H]12 [Formula Ia, [6R,7R]-3-[[[[4-(3-Carboxy-1-cyclopropyl-6,8-difluoro-1,4-dihydro-4-oxo-7-quinolinyl)-1-piperazinyl]carbonyl]-oxy]-methyl]-8-oxo-7-[(2-thienylacetyl)amino]-5-thia-1-azabicyclo-[4.2.0]oct-2-ene-2-carboxylic acid] | 0.5 | 0.125 | 0.125 | 2 | 0.25 | 0.25 | 0.0313 | 2 | 0.25 | 0.5 | 0.5 | 1 | 1 | 0.0313 | 0.25 | 0.5 | ≤ 0.0156 | 0.5 | 0.5 | 0.25 | MIC (E. coli 4; E. coli 4, Gram Negative, read-out: MIC): 0.125 µg/mL; MIC (E. coli ATCC 25922): 0.0625 µg/mL; MIC (Staph. aureus 82; Staph. aureus 82, Gram Positive and Others, read-out: MIC): 0.125 µg/mL; MIC (Micrococcus luteus PCI; Micrococcus luteus PCI, Gram Positive and Others, read-out: MIC): ≤ 0.0156 µg/mL; MIC (Ps. aeruginosa K799/61; Ps. aeruginosa K799/61, Gram Negative, read-out: MIC): 2 µg/mL; MIC (E. coli 1573E; 1573E): 0.0625 µg/mL; MIC [4]: 0.125 µg/mL; MIC (A. calcoaceticus PCI-3): 0.25 µg/mL; MIC (E. coli 94): 0.0625 µg/mL; MIC (Staph. aureus 1059B): 0.25 µg/mL; MIC (Ps. aeruginosa 1937E): 1 µg/mL; MIC (Staph. aureus ATCC 25923): 0.25 µg/mL; MIC (K. oxytoca 1082EN; 1082EN): 0.0625 µg/mL; MIC (Ent. faecalis ATCC 29212): 4 µg/mL; MIC (E. coli 2008 E): 0.0313 µg/mL; MIC (Serratia marcescens SM): 0.5 µg/mL
N#CCC(=O)N[C@@H]1C(=O)N2C(C(=O)O)=C(COC(=O)NC3CCN(c4c(F)cc5c(=O)c(C(=O)O)cn(C6CC6)c5c4F)C3)CS[C@H]12 (some centres unmarked) [Formula Ib, [6R,7R]-3-[[[[[1-(3-Carboxy-1-cyclopropyl-6,8-difluoro-1,4-dihydro-4-oxo-7-quinolinyl-3-[R,S]-pyrrolidinyl]-amino]carbonyl]oxy]methyl]-7-[(cyanoacetyl)amino]-8-oxo-5-thia-1-azabicyclo[4.2.0]oct-2-ene-2-carboxyiic acid monosodium salt] | 0.25 | 0.0625 | 0.25 | 2 | 0.25 | 0.25 | 0.5 | 0.5 | 0.25 | 0.25 | 0.25 | 0.5 | 0.5 | 0.0625 | 0.25 | 1 | 0.0156 | 0.25 | 0.25 | 0.25 | MIC (E. coli 4; 4): 0.125 µg/mL; MIC (E. coli ATCC 25922; E. coli ATCC 25922, Gram Negative, read-out: MIC): 0.0625 µg/mL; MIC (Staph. aureus 82; 82): 0.125 µg/mL; MIC (Micrococcus luteus PCI; Micrococcus luteus): 0.125 µg/mL; MIC (Ps. aeruginosa 8780): 1 µg/mL; MIC (Ps. aeruginosa K799/61; K799/61): 0.125 µg/mL; MIC (E. coli 1573E; E. coli 1573E, Gram Negative, read-out: MIC): 0.0625 µg/mL; MIC [4]: 0.25 µg/mL; MIC (A. calcoaceticus PCI-3): 0.25 µg/mL; MIC (E. coli 94): 0.125 µg/mL; MIC (Staph. aureus 1059B): 0.25 µg/mL; MIC (Ps. aeruginosa 1937E): 0.5 µg/mL; MIC (Staph. aureus ATCC 25923): 0.25 µg/mL; MIC (K. oxytoca 1082EN; K. oxytoca 1082EN, Gram Negative, read-out: MIC): 0.0625 µg/mL; MIC (Ent. faecalis ATCC 29212): 2 µg/mL; MIC [5]: 0.125 µg/mL; MIC (E. coli 2008 E): 0.0625 µg/mL; MIC (Serratia marcescens SM): 0.25 µg/mL
